Calls of active or inactive are those of the source. The rule behind the calls is not given here.
What was measured:
[1] = Drug localization in peripheral edge of Escherichia coli at 10 uM incubated for 30 mins by fluorescent dye based confocal microscopic analysis; type: ADME; conditions: 0.5 h
[2] = Octanol-water partition coefficient, logP of compound incubated for 24 hrs under shaking condition; type: physicochemical
Cell membrane [3] = experiment: Disruption of cell membrane integrity in Staphylococcus aureus at 2 uM irradiated with 6J/cm2 light followed by compound exposure for 10 mins by FL-4L/propidium iodide Live/dead staining based laser confocal microscopic analysis
Escherichia coli [4] = experiment: Binding affinity to Escherichia coli cell wall assessed as bound fraction at 25 uM measured after 3 to 10 mins; conditions: time 3-10 min
Candida albicans [5] = experiment: Binding affinity to Candida albicans cell wall at 50 uM preincubated with 12.5 to 50 mM Ca2+ for 30 mins followed by incubation with compound for 30 mins
Candida albicans [6] = experiment: Antifungal activity against Candida albicans up to 80 uM by broth microdilution method; type: functional, organism-based; conditions: dose microM <=80
Staphylococcus aureus [7] = experiment: Antibacterial activity against methicillin resistant Staphylococcus aureus up to 80 uM by broth microdilution method; type: functional, organism-based; conditions: dose microM <=80
Escherichia coli [8] = experiment: Binding affinity to Escherichia coli cell wall at 50 uM preincubated with 12.5 to 50 mM Ca2+ for 30 mins followed by incubation with compound for 30 mins
Candida albicans [9] = experiment: Binding affinity to Candida albicans cell wall assessed as bound fraction at 25 uM measured after 3 to 10 mins; conditions: time 3-10 min
Cell membrane [10] = experiment: Binding affinity to Escherichia coli cell membrane assessed as reduction in zeta potential by zetasizer-based analysis; type: subcellular
Escherichia coli [11] = experiment: Antibacterial activity against Escherichia coli up to 80 uM by broth microdilution method; type: functional, organism-based; conditions: dose microM <=80
Cell membrane [12] = experiment: Disruption of cell membrane integrity in Escherichia coli at 2 uM irradiated with 6J/cm2 light followed by compound exposure for 10 mins by FL-4L/propidium iodide Live/dead staining based laser confocal microscopic analysis
Staphylococcus aureus [13] = experiment: Photodynamic antibacterial activity against Staphylococcus aureus assessed as bacterial eradication preincubated for 20 mins in dark condition followed by 18 J/cm2 LED light irradiation and measured after 18 hrs by broth microdilution method; type: functional; conditions: light or radiation study, 18.33 h, time 1100 min
Escherichia coli [14] = experiment: Photodynamic antibacterial activity against Escherichia coli assessed as bacterial eradication preincubated for 20 mins in dark condition followed by 18 J/cm2 LED light irradiation and measured after 18 hrs by broth microdilution method; type: functional; conditions: light or radiation study, 18.33 h, time 1100 min
Staphylococcus aureus [15] = experiment: Photodynamic antibacterial activity against methicillin resistant Staphylococcus aureus assessed as bacterial eradication preincubated for 20 mins in dark condition followed by 18 J/cm2 LED light irradiation and measured after 18 hrs by broth microdilution method; type: functional; conditions: light or radiation study, 18.33 h, time 1100 min
Staphylococcus aureus [16] = experiment: Binding affinity to Staphylococcus aureus cell wall at 50 uM preincubated with 12.5 to 50 mM Ca2+ for 30 mins followed by incubation with compound for 30 mins
Candida albicans [17] = experiment: Photodynamic antifungal activity against Candida albicans assessed as fungal eradication preincubated for 20 mins in dark condition followed by 18 J/cm2 LED light irradiation and measured after 18 hrs by broth microdilution method; type: functional; conditions: light or radiation study, 18.33 h, time 1100 min
[18] = Induction of singlet oxygen generation in DPBF solution assessed as singlet oxygen quantum yield irradiated with 80 mW/cm2 light by DPBF-based assay; type: functional
Candida albicans [19] = experiment: Disruption of cell membrane integrity in Candida albicans at 2 uM irradiated with 6J/cm2 light followed by compound exposure for 10 mins by FL-4L/propidium iodide Live/dead staining based laser confocal microscopic analysis
Staphylococcus aureus [20] = experiment: Antibacterial activity against Staphylococcus aureus up to 80 uM by broth microdilution method; type: functional, organism-based; conditions: dose microM <=80
Staphylococcus aureus [21] = experiment: Binding affinity to Staphylococcus aureus cell wall assessed as bound fraction at 25 uM measured after 3 to 10 mins; conditions: time 3-10 min
Cell membrane [22] = experiment: Binding affinity to Staphylococcus aureus cell membrane assessed as reduction in zeta potential by zetasizer-based analysis; type: subcellular

| Compound | logP at 24 h [2] | Activity (Candida albicans [6]) | Activity (Staphylococcus aureus [7]) | Activity (Escherichia coli [11]) | MIC (Staphylococcus aureus [13]) [µM] | MIC (Escherichia coli [14]) [µM] | MIC (Staphylococcus aureus [15]) [µM] | MIC (Candida albicans [17]) [µM] | Activity [18] | Activity (Staphylococcus aureus [20]) | other results |
| --- | --- | --- | --- | --- | --- | --- | --- | --- | --- | --- | --- |
| CC1=CC(C)=[N+]2C1=Cc1c(C)cc(C)n1[B-]2(OCCC[N+](C)(C)C)OCCC[N+](C)(C)C.[I-].[I-] | -1.17 | – | – | – | – | – | – | – | – | – | Drug uptake [1]: Active |
| CC1=C(I)C(C)=[N+]2C1=Cc1c(C)c(I)c(C)n1[B-]2(OCCc1cc[n+](C)cc1)OCCc1cc[n+](C)cc1 | -1.14 | inactive | inactive | inactive | 20 | 0.625 | 20 | 40 | 0.74 | inactive | Activity (Cell membrane [3]): inactive; Activity (Escherichia coli [4]): 51.9%; Activity (Candida albicans [5]): inactive; Activity (Escherichia coli [8]): inactive; Activity (Candida albicans [9]): 34%; Activity (Cell membrane [10]): Active; Activity (Cell membrane [12]): Active; Activity (Staphylococcus aureus [16]): inactive; Activity (Candida albicans [19]): inactive; Activity (Staphylococcus aureus [21]): 55%; Activity (Cell membrane [22]): Active |
| CC1=C(I)C(C)=[N+]2C1=Cc1c(C)c(I)c(C)n1[B-]2(Oc1cc[n+](C)cc1)Oc1cc[n+](C)cc1 | -0.93 | inactive | inactive | inactive | 25 | 25 | 40 | 40 | 0.61 | inactive | – |
| CC1=C(I)C(C)=[N+]2C1=Cc1c(C)c(I)c(C)n1[B-]2(C#Cc1ccc[n+](C)c1)C#Cc1ccc[n+](C)c1 | -0.27 | inactive | inactive | inactive | 1.25 | 1.25 | 0.625 | 0.625 | 0.65 | inactive | – |
| CC1=C(I)C(C)=[N+]2C1=Cc1c(C)c(I)c(C)n1[B-]2(OCCC[N+](C)(C)C)OCCC[N+](C)(C)C | -1.01 | inactive | inactive | inactive | 30 | 40 | 20 | 40 | 0.68 | inactive | Activity (Escherichia coli [4]): 38.9%; Activity (Candida albicans [5]): inactive; Activity (Escherichia coli [8]): inactive; Activity (Candida albicans [9]): 53.6%; Activity (Cell membrane [10]): Active; Activity (Staphylococcus aureus [16]): inactive; Activity (Staphylococcus aureus [21]): 51.8%; Activity (Cell membrane [22]): Active |
| CC1=C(I)C(C)=[N+]2C1=Cc1c(C)c(I)c(C)n1[B-]2(OCc1cc[n+](C)cc1)OCc1cc[n+](C)cc1 | -1.21 | inactive | inactive | inactive | 50 | 25 | 40 | 40 | 0.59 | inactive | – |
| CC1=C(I)C(C)=[N+]2C1=Cc1c(C)c(I)c(C)n1[B-]2(OCC[N+](C)(C)C)OCC[N+](C)(C)C | -1.21 | inactive | inactive | inactive | 30 | 40 | 20 | 40 | 0.58 | inactive | – |

— ChEMBL document CHEMBL4765326, “Anchoring BODIPY photosensitizers enable pan-microbial photoinactivation” (Eur J Med Chem, 2020)
